On the set-up of data set [1]: method as in PMID 22510625. The conditions noted are these: liver damage, abdominal pain, gastrointestinal reactions, mucosal damage, bone marrow suppression; cited from earlier work.
Details of data set [2]: method as in PMID 28415433. Particulars: cited from earlier work.
The nature of data set [3]: Safety: body weight and H&E of primary organs during antitumor study. Type of data set: in vivo, mice. On the procedure:
Healthy mice were administered the Lipo@MTX or Cy-Lipo@MTX dispersion via tail vein (10 mg MTX-equivalent/kg body weight every three days) for five times (each group contained 3 mice). Saline was injected as a control. After the administration, blood biochemical indices were measured. During the in vivo antitumor studies, the body weight and activity status of mice in each group were monitored for evaluating the side effects of the MTX formulations. After in vivo antitumor studies, the primary organs of each group were harvested for H&E staining.

Data set [4] is described as follows: Pharmacokinetic study after intravenous administration. Type of data set: in vivo, SD rats. The conditions noted are these: rats. On the procedure: The advanced Automatic Blood Collection System (Instech, USA) was applied to study the pharmacokinetic feature of various MTX formulations. Female SD rats (200–220 g) were acclimatized at 25 ± 2 °C for 1 week before the experiments. Animals were randomized into 3 groups and each group contained 3 rats. Group I, II, and III were intravenously given free MTX, Lipo@MTX, and Cy-Lipo@MTX respectively at a dose of 10 mg MTX-equivalent/kg body weight. Blood (200 μL) was obtained at 0.25, 0.5, 1, 2, 4, 8, 12, 24, 48, and 72 h through jugular vein after administration. 150 μL of plasma was combined with 450 μL acetonitrile to precipitate proteins, and drug content of samples was analyzed by HPLC. The pharmacokinetic software (DAS 2.0) was used to assess key pharmacokinetic parameters including mean residence time (MRT), area under the curve (AUC), peak plasma concentration (Cmax), half-life (t1/2), and time to maximal plasma concentration (Tmax).

Data set [5] concerns JEG-3 cells. As to the kind of experiment: Mitochondrial transmembrane potential (JC-1, CLSM). It is filed as cell-based, human. The conditions noted are these: 1 μg/mL MTX-equivalent, 24 h. The procedure: Mitochondrial transmembrane potential changes induced by various MTX formulations were evaluated by the JC-1 probe. Briefly, JEG-3 cells were added to the confocal dish. Following culture for 24 h, the cells were treated with free MTX, MTX + Cy-lipid, Lipo@MTX, or Cy-Lipo@MTX at an equivalent MTX concentration (1 μg/mL) for 24 h. JC-1 solution was exchanged for cold PBS following two JC-1 staining buffer washes, after which samples were assessed by CLSM at λex (488 nm)/λem (530 nm) for green fluorescence and λex (525 nm)/λem (590 nm) for red fluorescence.

The subject of data set [6] is JEG-3 cells. As to the kind of experiment: In vitro cytotoxicity, MTT assay. Type of data set: cell-based. The conditions noted are these: Homo sapiens; JEG-3, 48 h, MTX-equivalent. On the procedure: (§1) The cytotoxicities of MTX formulations were assessed via MTT assay. The groups were as follows: MTX solution (free MTX), MTX plus DSPE-PEG2k-Cy (abbreviated as MTX + Cy-lipid, the molar ratio of Cy-lipid to MTX was about 1:5.0), Lipo@MTX, and Cy-Lipo@MTX. JEG-3 cells or Pricell-0051 cells were added to 96-well plates (1 × 10^4 cells/well). After 24 h, cells were rinsed using PBS and treated with MTX formulations (0.001–30 μg MTX-equivalent/mL) for 48 h at 37 °C [40]. Viability was assessed by adding 20 μL of MTT (5 mg/mL) per well for 4 h. Next, the medium was removed and formazan crystals were dissolved via the addition of 150 μL of DMSO. A microplate reader (Varioskan Flash 3001, Thermo Fisher Scientific, USA) was then used to assess absorbance at 490 nm.
A general note: Tetrazolium assays rely on reduction of a dye to a coloured formazan, in cell work by metabolically active cells.

The subject of the next data set is Pricell-0051 cells. Nature of the data set: In vitro cytotoxicity, MTT assay. It is filed as cell-based. The conditions noted are these: Homo sapiens; Pricell-0051, 48 h, MTX-equivalent. On the procedure: as §1
Data set [7] can be described thus: Biodistribution of MTX in tumor-bearing mice. Type of data set: in vivo. The conditions noted are these: 2 h post-treatment. The procedure:
JEG-3 tumor-bearing mice were also used for organ distribution studies. Animal groups and dosage were consistent with pharmacokinetic studies. For bio-distribution studies of MTX formulations, three animals per group were sacrificed at 2, 8, and 24 h following treatment, and tumors, lungs, kidneys, hearts, livers, and spleens were isolated, weighed, and frozen. These tissues were then homogenized, spun down for 1 min, rested for 45 min, and combined with 100 µl of 10% trichloroacetic acid solution followed by vortexing for 1 min, adding 5 mL of acetonitrile, and incubating for 10 min. Samples were then spun down for 10 min at 6,000 rpm, and supernatants were isolated, combined with mobile phase, and passed through 0.22 µm membrane filters. Finally, HPLC was applied to estimate the drug content of samples.

For data set [8], the system named is JEG-3 cells. Nature of the data set: Cell cycle analysis (PI, flow cytometry). Type of data set: cell-based, human. Particulars: 1 μg/mL MTX-equivalent, 24 h; control 5.44 ± 0.97%. The procedure: For cell cycle analysis, JEG-3 cells (10^5/well) were added to 6-well plates for 24 h and were then treated with culture medium or MTX formulation-contained culture medium at an equivalent MTX concentration (1 μg/mL) for another 24 h. Then, JEG-3 cells were collected (1000 rpm, 5 min) and fixed using 70% ethanol for 8 h at 4℃. After resuspended in PI/RNase Staining buffer for 30 min, the cell cycle was determined with flow cytometry.
A general note: A flow cytometer gives signals particle by particle.

Data set [9] concerns JEG-3 cells. Nature of the data set: Apoptosis (FITC Annexin V, flow cytometry). Type of data set: cell-based, human. Particulars: 1 μg/mL MTX-equivalent, 24 h; control 10.39 ± 2.78%. On the procedure: Apoptosis of JEG-3 cells was detected using the FITC Annexin V Apoptosis Detection Kit I. The cells (10^5/well) were seeded in 6-well plates. Following culture for 24 h, cells were treated with culture medium or MTX formulation-contained culture medium at an equivalent MTX concentration (1 μg/mL) for another 24 h. All other protocols were conducted based on the provided directions. The cells were analyzed by flow cytometry.

The mark [10] stands for this setting: female, Sprague-Dawley (SD), rat, plasma, iv, 10 mg/kg, 10 mg MTX-equivalent/kg.

Broadly, the AUC(0-t) is the area under the concentration-time curve up to a stated or last time point. What is called Cmax is the highest concentration seen after dosing. Broadly, the clearance is the volume of plasma or blood freed of the substance per unit of time. What is called IC50 is the concentration that inhibits the measured activity by half. For `CN(Cc1cnc2nc(N)nc(N)c2n1)c1ccc(C(=O)N[C@@H](CCC(=O)O)C(=O)O)cc1` [free MTX, Methotrexate], the “incidence rate of adverse reactions during systemic administration” value in data set [1] was “more than 30%”. For the same molecule, the “solubility in acidic versus neutral solutions” value in [2] is “solubility of MTX in acidic solutions is greater than that in neutral solutions”. In data set [3] (end of treatment), the “H&E-stained slices of major organs” value is listed as “many edematous glomeruli”. The “body weight change during treatment” value in data set [3] (tumor-bearing mice, 5 mg MTX-equivalent/kg) is “severe weight loss”. Further, in [4] (setting [10]), the AUC(0-t) stood at 62400 ± 21500 ng·h/mL, the Cmax was determined as 13500 ± 1960 ng/mL and the clearance is 1.43 mL/min. For the same molecule, the MRT last in [4] (female, Sprague-Dawley (SD), rat, plasma, iv, 10 mg/kg, i.v., 10 mg MTX-equivalent/kg, read-out: MRT(0-t)) is 6.27 ± 2.52 h. Further, the half-life in data set [4] (female, Sprague-Dawley (SD), rat, plasma, iv, 10 mg/kg, i.v., 10 mg MTX-equivalent/kg, read-out: t1/2β (converted)) was 5.23 ± 2.72 h. The concentration at 0.25 h in data set [4] (female, Sprague-Dawley (SD), rat, plasma, iv, after 0.25 h, i.v., 10 mg/kg, read-out: plasma MTX concentration) was determined as 13500 ± 1960 ng/mL. Besides, the concentration at 4 h in data set [4] (female, Sprague-Dawley (SD), rat, plasma, iv, after 4 h, i.v., 10 mg/kg, read-out: plasma MTX concentration) amounted to 4590 ± 1610 ng/mL. The concentration at 12 h in [4] (female, Sprague-Dawley (SD), rat, plasma, iv, after 12 h, i.v., 10 mg/kg, read-out: plasma MTX concentration) is 1140 ± 490 ng/mL. The concentration at 24 h in [4] (female, Sprague-Dawley (SD), rat, plasma, iv, after 24 h, i.v., 10 mg/kg, read-out: plasma MTX concentration) stood at 430 ± 360 ng/mL. Besides, in data set [4] (i.v., 10 mg MTX-equivalent/kg), the Vss is 0.58 ± 0.10 mg/kg/(mg/mL). For the same molecule, in the data set on JEG-3 cells [5], the “effect on mitochondrial transmembrane potential (JC-1 red fluorescence)” value is “a certain destructive effect on the MMP”. Further, the IC50 in the data set on JEG-3 cells [6] turned out to be 19.6 µg/mL. The 50% inhibitory concentration (IC50) with Pricell-0051 cells worked out at 32.2 µg/mL. Also, the “main organs of MTX distribution” value in data set [7] is “found in the kidneys and liver”. The “JEG-3 cells arrested at the S phase” value with JEG-3 cells [8] came to 11.59 ± 1.53%. Moreover, the “apoptotic percentage of JEG-3 cells” value with JEG-3 cells [9] is on record as 18.03 ± 2.25%.

(Values after publication PMC8207694, “Nucleoside transporter-guided cytarabine-conjugated liposomes for intracellular methotrexate delivery and cooperative choriocarcinoma therapy” (Journal of Nanobiotechnology, 2021).)
